From patent US10064858B2, “Methods and compositions for treating bacterial infections with iron chelators” (THE UNITED STATES OF AMERICA, AS REPRESENTED BY THE …, priority 2011, dated 2018)
Like-named read-outs stand apart in the source and are kept apart here.

Tests used:
Format in all cases: cell-based
Acinetobacter baumannii = assay: MIC, CLSI microdilution (Tables 1 and 6)
Method: (§1) The minimal inhibitory concentration (MIC) of non-toxic iron chelators was determined against standard strains of MDR bacteria and clinical isolates according to the guidelines of the Clinical and Laboratory Standards Institute (CLSI).
(§2) Individual MICs were determined following the microdilution method recommended by CLSI in cationic-adjusted Mueller-Hinton Broth (CAMHB), or M9 media. […] Tests were performed in triplicate. MIC of iron chelators were determined for noscomial ESKAPE pathogens.
(§3) MIC were determined in CAMHB media as described above in Example 8.

K. pneumonia = assay: MIC, CLSI microdilution (Tables 1 and 6); conditions: Klebsiella pneumoniae, Table 1, read-out: MIC of Iron Chelators
Method: as §1, §2, §3

P. aeruginosa = assay: MIC, CLSI microdilution (Tables 1 and 6); conditions: Pseudomonas aeruginosa, Table 1, read-out: MIC of Iron Chelators
Method: as §1, §2, §3

[1] = system: clinical isolates of A. baumannii; assay: MIC for clinical isolates in CAMHB media (Table 3); conditions: Acinetobacter baumannii
Method: as §2

[2] = system: clinical isolates of A. baumannii; assay: MIC for clinical isolates in RPMI (low iron) media (Table 4); set-up: key to MIC of Iron Chelators: NG = no growth in table 4; conditions: for MIC: Acinetobacter baumannii
Method: […] […] Tests were performed in triplicate. MIC of iron chelators were determined for noscomial ESKAPE pathogens.
For a number of strains, the iron chelators produced no growth of bacteria (NG).

[3] = system: A. baumannii AB 19606, AB 17978; assay: Checkerboard assay, chelator with antibiotic (FIC); conditions: for checkerboard interaction: AB19606
From the text: Drug interactions were initially evaluated with the “checkerboard” microdilution design, which provided a matrix of all drug combinations assayed in terms of fractions of the previously determined MIC. The checkerboard microdilution design is described in R. J. Tallarida, “Drug Synergism: Its Detection and Applications,” Journal of Pharmacology and Experimental Therapeutics, 865-872 (2001); and in R. L. White, et al., (1996), supra. FIGS. 39A and 39B show the wellplates having different concentrations of iron chelator and antibiotic, as labeled along the x-axis and y-axis. […] The checkerboard assay was used to asses other combinations of iron chelators and antibiotics. The fractional inhibitory concentration index (FIC), which was calculated as follows: FIC=(MIC A in combination/MIC A)+(MIC B in combination/MIC B). […] Blank spaces indicate concentrations not tested. […] Against the species PA PAO1 and PA 27853, all the antibiotics except for Ami.

[4] = ATCC17978, ATCC 17978, Table 1, read-out: MIC of Iron Chelators
[5] = ATCC19606, ATCC 19606, Table 1, read-out: MIC of Iron Chelators
[6] = AB967, read-out: MIC of Iron Chelators
[7] = AB2828, read-out: MIC of Iron Chelators
[8] = AB3340, read-out: MIC of Iron Chelators
[9] = AB3560, read-out: MIC of Iron Chelators
[10] = AB3638, read-out: MIC of Iron Chelators
[11] = AB3785, read-out: MIC of Iron Chelators
[12] = AB3806, read-out: MIC of Iron Chelators
[13] = AB3917, read-out: MIC of Iron Chelators
[14] = AB3927, read-out: MIC of Iron Chelators
[15] = AB4025, read-out: MIC of Iron Chelators
[16] = AB4026, read-out: MIC of Iron Chelators
[17] = AB4027, read-out: MIC of Iron Chelators
[18] = AB4052, read-out: MIC of Iron Chelators
[19] = AB4269, read-out: MIC of Iron Chelators
[20] = AB4448, read-out: MIC of Iron Chelators
[21] = AB4456, read-out: MIC of Iron Chelators
[22] = AB4490, read-out: MIC of Iron Chelators
[23] = AB4498, read-out: MIC of Iron Chelators
[24] = AB4795, read-out: MIC of Iron Chelators
[25] = AB4857, read-out: MIC of Iron Chelators
[26] = AB4878, read-out: MIC of Iron Chelators
[27] = AB4932, read-out: MIC of Iron Chelators
[28] = AB4957, read-out: MIC of Iron Chelators
[29] = AB4991, read-out: MIC of Iron Chelators
[30] = AB5001, read-out: MIC of Iron Chelators
[31] = AB5075, read-out: MIC of Iron Chelators
[32] = AB5197, read-out: MIC of Iron Chelators
[33] = AB5256, read-out: MIC of Iron Chelators
[34] = AB5674, read-out: MIC of Iron Chelators
[35] = AB5711, read-out: MIC of Iron Chelators
[36] = AB 17978, in combination with Amikacin
[37] = AB 17978, in combination with Cefotaxine
[38] = AB 17978, in combination with Colisitin (Colistin)
[39] = AB 17978, in combination with Doxycycline
[40] = AB 17978, in combination with Rifampin
[41] = AB 19606, in combination with Amikacin
[42] = AB 19606, in combination with Cefotaxine
[43] = AB 19606, in combination with Colisitin (Colistin)
[44] = AB 19606, in combination with Doxycycline
[45] = AB 19606, in combination with Rifampin

Compound: CNC(=O)c1c(O)c(=O)cc(C)n1C1CC1 [Apo6619, 1-cyclopropyl-3-hydroxy-6-methyl-4-oxo-1,4-dihydro-pyridine-2-carboxylic acid methylamide]
- MIC (Acinetobacter baumannii; [4]): 250 mg/L
- MIC (Acinetobacter baumannii; [5]): 250 mg/L
- MIC (K. pneumonia; ATCC700603, ATCC 700603): > 500 mg/L
- MIC (K. pneumonia; BAA2146, BAA-2146): > 500 mg/L
- MIC (P. aeruginosa; ATCC27853, ATCC 27853): > 500 mg/L
- MIC (P. aeruginosa; PAO1): > 500 mg/L
- MIC [1, 6]: 250 mg/L
- MIC [1, 7]: 500 mg/L
- MIC [1, 8]: 250 mg/L
- MIC [1, 9]: 500 mg/L
- MIC [1, 10]: 500 mg/L
- MIC [1, 11]: 500 mg/L
- MIC [1, 12]: 1000 mg/L
- MIC [1, 13]: 500 mg/L
- MIC [1, 14]: 250 mg/L
- MIC [1, 15]: 500 mg/L
- MIC [1, 16]: 500 mg/L
- MIC [1, 17]: 500 mg/L
- MIC [1, 18]: 500 mg/L
- MIC [1, 19]: 250 mg/L
- MIC [1, 20]: 500 mg/L
- MIC [1, 21]: 500 mg/L
- MIC [1, 22]: 500 mg/L
- MIC [1, 23]: 500 mg/L
- MIC [1, 24]: 500 mg/L
- MIC [1, 25]: 500 mg/L
- MIC [1, 26]: 500 mg/L
- MIC [1, 27]: 500 mg/L
- MIC [1, 28]: 250 mg/L
- MIC [1, 29]: 500 mg/L
- MIC [1, 30]: 250 mg/L
- MIC [1, 31]: 250 mg/L
- MIC [1, 32]: 500 mg/L
- MIC [1, 33]: 250 mg/L
- MIC [1, 34]: 250 mg/L
- MIC [1, 35]: 250 mg/L
- MIC of Iron Chelators ([2]; AB967): NG
- MIC of Iron Chelators ([2]; AB2828): NG
- MIC of Iron Chelators ([2]; AB3340): NG
- MIC of Iron Chelators ([2]; AB3560): NG
- MIC of Iron Chelators ([2]; AB3927): NG
- MIC [2, 10]: 250 mg/L
- MIC [2, 11]: 125 mg/L
- MIC [2, 12]: 250 mg/L
- MIC [2, 13]: 250 mg/L
- MIC [2, 15]: 250 mg/L
- MIC [2, 16]: 250 mg/L
- MIC [2, 17]: 250 mg/L
- MIC [2, 18]: 250 mg/L
- MIC [2, 19]: 125 mg/L
- MIC [2, 20]: 250 mg/L
- MIC [2, 21]: 250 mg/L
- MIC [2, 22]: 250 mg/L
- MIC [2, 23]: 250 mg/L
- MIC [2, 24]: 250 mg/L
- MIC [2, 25]: 250 mg/L
- MIC [2, 26]: 250 mg/L
- MIC [2, 27]: 250 mg/L
- MIC [2, 28]: 250 mg/L
- MIC [2, 29]: 125 mg/L
- MIC [2, 30]: 250 mg/L
- MIC [2, 31]: 250 mg/L
- MIC [2, 32]: 250 mg/L
- MIC [2, 33]: 250 mg/L
- MIC [2, 34]: 250 mg/L
- MIC [2, 35]: 250 mg/L
- FIC [3, 36]: 0.75
- FIC [3, 37]: 0.75
- FIC [3, 38]: 0.75
- FIC [3, 39]: 1.25
- FIC [3, 40]: 0.75
- FIC [3, 41]: 1.25
- FIC [3, 42]: 1.25
- FIC [3, 43]: 1.25
- FIC [3, 44]: 2.25
- FIC [3, 45]: 0.75

Compound: Cc1c(O)c(=O)ccn1C [ApoL1, 3-hydroxy-1,2-dimethyl-4(1H)-pyridone]
- MIC (Acinetobacter baumannii; [4]): 125 mg/L
- MIC (Acinetobacter baumannii; [5]): 125 mg/L
- MIC (K. pneumonia; ATCC700603, ATCC 700603): 500 mg/L
- MIC (K. pneumonia; BAA2146, BAA-2146): 250 mg/L
- MIC (P. aeruginosa; ATCC27853, ATCC 27853): > 500 mg/L
- MIC (P. aeruginosa; PAO1): 250 mg/L
- MIC [1, 6]: 250 mg/L
- MIC [1, 7]: 500 mg/L
- MIC [1, 8]: 250 mg/L
- MIC [1, 9]: 500 mg/L
- MIC [1, 10]: 250 mg/L
- MIC [1, 11]: 250 mg/L
- MIC [1, 12]: 500 mg/L
- MIC [1, 13]: 250 mg/L
- MIC [1, 14]: 250 mg/L
- MIC [1, 15]: 250 mg/L
- MIC [1, 16]: 250 mg/L
- MIC [1, 17]: 250 mg/L
- MIC [1, 18]: 250 mg/L
- MIC [1, 19]: 250 mg/L
- MIC [1, 20]: 250 mg/L
- MIC [1, 21]: 250 mg/L
- MIC [1, 22]: 250 mg/L
- MIC [1, 23]: 250 mg/L
- MIC [1, 24]: 250 mg/L
- MIC [1, 25]: 250 mg/L
- MIC [1, 26]: 250 mg/L
- MIC [1, 27]: 500 mg/L
- MIC [1, 28]: 125 mg/L
- MIC [1, 29]: 250 mg/L
- MIC [1, 30]: 125 mg/L
- MIC [1, 31]: 250 mg/L
- MIC [1, 32]: 250 mg/L
- MIC [1, 33]: 250 mg/L
- MIC [1, 34]: 250 mg/L
- MIC [1, 35]: 250 mg/L
- MIC of Iron Chelators ([2]; AB967): NG
- MIC of Iron Chelators ([2]; AB2828): NG
- MIC of Iron Chelators ([2]; AB3340): NG
- MIC of Iron Chelators ([2]; AB3560): NG
- MIC of Iron Chelators ([2]; AB3785): NG
- MIC of Iron Chelators ([2]; AB3917): NG
- MIC of Iron Chelators ([2]; AB3927): NG
- MIC [2, 10]: 125 mg/L
- MIC [2, 12]: 125 mg/L
- MIC [2, 15]: 125 mg/L
- MIC [2, 16]: 125 mg/L
- MIC [2, 17]: 125 mg/L
- MIC [2, 18]: 125 mg/L
- MIC [2, 19]: 125 mg/L
- MIC [2, 20]: 125 mg/L
- MIC [2, 21]: 125 mg/L
- MIC [2, 22]: 125 mg/L
- MIC [2, 23]: 125 mg/L
- MIC [2, 24]: 125 mg/L
- MIC [2, 25]: 125 mg/L
- MIC [2, 26]: 250 mg/L
- MIC [2, 27]: 64 mg/L
- MIC [2, 28]: 125 mg/L
- MIC [2, 29]: 125 mg/L
- MIC [2, 30]: 125 mg/L
- MIC [2, 31]: 125 mg/L
- MIC [2, 32]: 125 mg/L
- MIC [2, 33]: 125 mg/L
- MIC [2, 34]: 125 mg/L
- MIC [2, 35]: 64 mg/L
- FIC [3, 36]: 1.25
- FIC [3, 37]: 1.25
- FIC [3, 38]: 1.25
- FIC [3, 39]: 1.25
- FIC [3, 40]: 0.75
- FIC [3, 41]: 1.25
- FIC [3, 42]: 1.25
- FIC [3, 43]: 1.25
- FIC [3, 44]: 2.25
- FIC [3, 45]: 0.75
- checkerboard interaction ([3]; with doxycycline (FIG. 39B)): indifference
- checkerboard interaction ([3]; with rifampin (FIG. 39A)): moderate synergy
